In patent US8658661B2, “Oxadiazole inhibitors of leukotriene production” (Boehringer Ingelheim International GmbH, priority 2010, dated 2014):

Columns and labels:
[1] = tested on: biomarkers for myocardial infarction risk; conditions: clinical trial; cited from earlier work
human glomerulonephritis = conditions: clinical trial; cited from earlier work
[2] = tested on: apoE/LDL-R double knockout mice; conditions: oral dosing, high-fat diet from 2 months of age to 6 months; cited from earlier work
ApoE−/−xCD4dnTβRII mice = conditions: via infusion, treated for four weeks; cited from earlier work
[3] = biological target: T1, recombinant human FLAP protein (Homo sapiens, UniProt P20292); experiment: FLAP binding assay (SPA, displacement of [125I]L-691,831); conditions: membranes of sf9 cells expressing recombinant human FLAP; [125I]L-691,831 probe; read-out: FLAP binding IC50
T1 construct: made in house; host or cells: Sf9 insect cells (100,000×g membrane pellet used)
T1 sequence (P20292 1-161): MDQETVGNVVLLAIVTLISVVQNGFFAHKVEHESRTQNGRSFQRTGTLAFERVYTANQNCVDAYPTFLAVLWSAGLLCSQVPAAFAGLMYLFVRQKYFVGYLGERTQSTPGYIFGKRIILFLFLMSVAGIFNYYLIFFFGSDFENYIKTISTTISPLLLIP
In short: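 Membranes from sf9 cells expressing human FLAP in pH 7.5 Tris buffer (MgCl2, EDTA, PMSF). Non-specific binding defined with 10 μM cold L-691,831.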

[4] = tested on: synthesis of LTB4 in human whole blood; experiment: Human whole blood assay (inhibition of LTB4 synthesis, calcimycin stimulated); assay type: cell-based; conditions: heparinized human whole blood, calcimycin 20 μM, plasma LTB4
In short: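 Readout: plasma LTB4 by antibody-based HTRF. Compound added to heparinized human whole blood, 15 min 37° C; calcimycin 20 μM final (PBS pH 7.4), 30 min 37° C; spun 1500×g 5 min, plasma taken.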

Row | SMILES | IC50 [3] [nM] | IC50 [4] [nM] | also measured
1 | O=C(O)[C@@H](c1ccc(OCc2ccc3ccccc3n2)cc1)C1CCCC1 [DG-031] |  |  | effect on biomarkers for myocardial infarction risk [1]: dose-dependent suppression of several biomarkers
2 | CC(C)(C)Sc1c(CC(C)(C)C(=O)O)n(Cc2ccc(Cl)cc2)c2ccc(OCc3ccc4ccccc4n3)cc12 [MK-591] |  |  | effect on proteinuria in human glomerulonephritis (human glomerulonephritis): reduce proteinuria
3 | CC(C)c1ccc2c(c1)c(SC(C)(C)C)c(CC(C)(C)C(=O)O)n2Cc1ccc(Cl)cc1 [MK-886] |  |  | decrease in plaque coverage in the aorta [2]: 56%; decrease in plaque coverage in the aortic root [2]: 43%; decrease in plaque area in the aortic root (ApoE−/−xCD4dnTβRII mice): ~40%
4 | COCCNc1ccc(-c2nc(C(C)(c3ccc(-c4cnc(N)nc4)cc3)C3CC3)no2)cn1 (stereo not drawn) [Example 38, 5-{4-[1-cyclopropyl-1-(5-{6-[(2-methoxyethyl)amino]pyridin-3-yl}-1,2,4-oxadiazol-3-yl)ethyl]phenyl}pyrimidin-2-amine] | 2.2 | 97 | 
5 | CN(C)C(=O)Cn1cc(-c2nc([C@](C)(c3ccc(-c4cnc(N)nc4)cc3)C3CC3)no2)cn1 (single isomer, unassigned) [Example 116] | 150 | 2000 | 
6 | Cn1cc(-c2nc([C@@](C)(c3ccc(-c4cnc(N)nc4)cc3)C3CC3)no2)cn1 [Example 61, 5-(4-{(1R)-1-cyclopropyl-1-[5-(1-methyl-1H-pyrazol-4-yl)-1,2,4-oxadiazol-3-yl]ethyl}phenyl)pyrimidin-2-amine] | 1.3 | 15 | 
7 | COCCNc1cnc(-c2nc([C@@](C)(c3ccc(-c4cnc(N)nc4)cc3)C(C)C)no2)cn1 [Example 123, 5-{4-[(2R)-2-(5-{5-[(2-methoxyethyl)amino]pyrazin-2-yl}-1,2,4-oxadiazol-3-yl)-3-methylbutan-2-yl]phenyl}pyrimidin-2-amine] | 1.7 | 42 | 
8 | CNc1ccc(-c2ccc(C(C)(c3noc(-c4cnn(CC(=O)N(C)C)c4)n3)C3CC3)cc2)cn1 (stereo not drawn) [Example 251, 2-[4-(3-{1-Cyclopropyl-1-[4-(6-methylamino-pyridin-3-yl)-phenyl]-ethyl}-[1,2,4]oxadiazol-5-yl)-pyrazol-1-yl]-N,N-dimethyl-acetamide] | 9.1 | 130 | 
